From the NIST ThermoML archive (doi:10.1016/j.jct.2018.09.010)
Numbers after ± are expanded uncertainties.

Experiment: relative permittivity at various frequencies (dimensionless); xn = mol fraction of the nth substance listed
Details: Gas, Frequency=385 MHz, Reentrant cavity resonator

[C-]#[O+] [carbon monoxide] + O=C=O
Details	relative permittivity
255.04 K, 1972.8 kPa, x1 = 0.7493	1.01697 ± 0.075
255.04 K, 3976.6 kPa, x1 = 0.7493	1.03607 ± 0.075
255.05 K, 3004.5 kPa, x1 = 0.4959	1.03119 ± 0.075
255.05 K, 5999.5 kPa, x1 = 0.7493	1.05751 ± 0.076
255.06 K, 1479.4 kPa, x1 = 0.4959	1.01417 ± 0.075
255.06 K, 1511.8 kPa, x1 = 0.4959	1.01451 ± 0.075
255.06 K, 2026.5 kPa, x1 = 0.7493	1.01747 ± 0.075
255.06 K, 3003.3 kPa, x1 = 0.4959	1.03118 ± 0.075
255.06 K, 4001.7 kPa, x1 = 0.4959	1.04416 ± 0.076
255.06 K, 5990.8 kPa, x1 = 0.7493	1.05742 ± 0.076
255.06 K, 7992.1 kPa, x1 = 0.7493	1.08067 ± 0.077
273.14 K, 1964 kPa, x1 = 0.7493	1.01551 ± 0.075
273.14 K, 3995.6 kPa, x1 = 0.7493	1.03288 ± 0.075
273.14 K, 5997.2 kPa, x1 = 0.7493	1.05136 ± 0.076
273.15 K, 2016.4 kPa, x1 = 0.7493	1.01594 ± 0.075
273.15 K, 4009 kPa, x1 = 0.7493	1.033 ± 0.075
273.15 K, 5997.2 kPa, x1 = 0.7493	1.05135 ± 0.076
273.15 K, 7991.2 kPa, x1 = 0.7493	1.07098 ± 0.077
273.2 K, 1454.1 kPa, x1 = 0.4959	1.01273 ± 0.075
273.2 K, 2480.8 kPa, x1 = 0.4959	1.02261 ± 0.075
273.2 K, 4502 kPa, x1 = 0.4959	1.0448 ± 0.076
273.2 K, 5505.6 kPa, x1 = 0.4959	1.05746 ± 0.076
273.21 K, 3471.2 kPa, x1 = 0.4959	1.03299 ± 0.075
293.23 K, 1980.8 kPa, x1 = 0.7493	1.0144 ± 0.075
293.23 K, 3995.9 kPa, x1 = 0.7493	1.02993 ± 0.075
293.23 K, 4015.8 kPa, x1 = 0.7493	1.0301 ± 0.075
293.23 K, 6011.2 kPa, x1 = 0.7493	1.04635 ± 0.076
293.23 K, 6015 kPa, x1 = 0.7493	1.04638 ± 0.076
293.23 K, 8001.1 kPa, x1 = 0.7493	1.0633 ± 0.077
293.24 K, 2023.8 kPa, x1 = 0.7493	1.01472 ± 0.075
293.25 K, 2039.7 kPa, x1 = 0.4959	1.0167 ± 0.075
293.25 K, 3988.8 kPa, x1 = 0.4959	1.03469 ± 0.075
293.25 K, 4025.1 kPa, x1 = 0.4959	1.03504 ± 0.075
293.25 K, 5986 kPa, x1 = 0.4959	1.05557 ± 0.076
293.26 K, 1975.2 kPa, x1 = 0.4959	1.01614 ± 0.075
293.26 K, 6541.1 kPa, x1 = 0.4959	1.06185 ± 0.076
313.26 K, 1937.1 kPa, x1 = 0.4959	1.01462 ± 0.075
313.26 K, 2024.1 kPa, x1 = 0.4959	1.0153 ± 0.075
313.26 K, 5954.7 kPa, x1 = 0.4959	1.04939 ± 0.076
313.26 K, 6218.2 kPa, x1 = 0.4959	1.0519 ± 0.076
313.27 K, 4013.4 kPa, x1 = 0.4959	1.03178 ± 0.075
313.28 K, 1974.2 kPa, x1 = 0.7493	1.01333 ± 0.075
313.28 K, 2022.8 kPa, x1 = 0.7493	1.01367 ± 0.075
313.28 K, 3992.7 kPa, x1 = 0.7493	1.02755 ± 0.075
313.28 K, 5954.9 kPa, x1 = 0.7493	1.04192 ± 0.076
313.28 K, 7996.5 kPa, x1 = 0.7493	1.05736 ± 0.076
313.29 K, 6015.3 kPa, x1 = 0.7493	1.04237 ± 0.076
